From patent US8048455B2, “Treatment of cancer and inflammatory disorder” (Academia Sinica, priority 2006, dated 2011) come the findings set out here.

SMILES strings stand for the structures.

In one data set the test system is B16 melanoma. Put plainly: In vivo inhibition of B16 melanoma growth in C57BL/6J mice. To be noted: mouse, in vivo, ip. As for the experimental part: The chemopreventive effect of the CREa8 subfraction was evaluated on tumor growth using the B16 melanoma C57BL/6J mouse system. Six-week-old animals (4 groups of mice, 5 in each group) were used in this experiment. Group 1 mice (Sham control) were intraperitoneally (i.p.) injected with 20 μL of DMSO every 2 days throughout the experimental period, except 100 μL PBS was injected on day 0. Group 4 mice (Tumor control) were pre-treated with DMSO every 2 days, starting from day—14, for 2 weeks, inoculated with B16 tumor cells (1×10^6 cells/100 μL PBS) subcutaneously (s.c.) on the abdominal area on day 0, and then injected with DMSO every 2 days until day 21. Group 2 mice were i.p. pre-treated with CREa8 (10 mg/kg body weight per dose) every 2 days, starting from day—14, for 2 weeks, s.c. inoculated with B16 tumor cells on day 0, and then continuously treated with CREa8 (i.p.) every 2 days until day 21. Group 3 mice were similarly pre-treated with DMSO every 2 days for 2 weeks, inoculated with B16 tumor cells on day 0, and then treated with cisplatin (i.p.) every 2 days until day 21. The test mice were monitored daily, and body weights and tumor size (average of 2 dimensions) recorded every 2 days. At the end of the experiment (day 21), tumors were excised and weighed.
The cancer prevention efficacy of the dLGG-rich fraction (CREa8) was examined in vivo in 4 groups of mice according to the method described above. Cisplatin, a cancer chemotherapeutic, was used as a reference control.

In a further data set the test system is COX-2 protein. Put plainly: COX-2 protein expression (immunoblotting) in LPS-stimulated macrophages. To be noted: LPS 18 h. It is filed as cell-based, murine. The protocol:
Total cellular proteins and the specific cytosolic and nuclear proteins were prepared using methods described in Chiang et al. Protein content was measured by the Bradford method (Bio-Rad). Protein was resolved by 5-20% gradient SDS-PAGE and subjected to immunoblotting using enhanced chemiluminescence reagents (ECL, Amersham). Monoclonal antibodies against PARP (Transduction Laboratories, Lexington, Ky.), GA3PDH (Biogenesis, Poole, UK), α-tubulin (Oncogene Science, Cambridge, UK), COX-2 (Cayman Chemical), phospho-(Ser32)-IκBα, phospho-IKKα(Ser180)/IKKβ(Ser181) (New England Biolabs, Beverly, Mass.), iNOS, IκBα, IKKα/β or NF-κB p65 (RelA) (Santa Cruz Biotechnology, Santa Cruz, Calif.) were used.
(§1) It was further examined whether dLGG affects COX-2 mRNA and protein expression using RT-PCR and immunoblotting. Cells were treated with dLGG for 1 hour, then LPS (1 μg/mL) was added for 18 hours. Total cellular protein (20 μg) was subjected to immunoblotting. Quantification of COX-2 mRNA and protein expression involved normalization to GA3PDH by densitometry.

The next data set deals with T1, COX-2 enzyme (Ovis aries, UniProt P79208).
T1 construct: purchased Cayman Chemical
T1 sequence (P79208 17-603): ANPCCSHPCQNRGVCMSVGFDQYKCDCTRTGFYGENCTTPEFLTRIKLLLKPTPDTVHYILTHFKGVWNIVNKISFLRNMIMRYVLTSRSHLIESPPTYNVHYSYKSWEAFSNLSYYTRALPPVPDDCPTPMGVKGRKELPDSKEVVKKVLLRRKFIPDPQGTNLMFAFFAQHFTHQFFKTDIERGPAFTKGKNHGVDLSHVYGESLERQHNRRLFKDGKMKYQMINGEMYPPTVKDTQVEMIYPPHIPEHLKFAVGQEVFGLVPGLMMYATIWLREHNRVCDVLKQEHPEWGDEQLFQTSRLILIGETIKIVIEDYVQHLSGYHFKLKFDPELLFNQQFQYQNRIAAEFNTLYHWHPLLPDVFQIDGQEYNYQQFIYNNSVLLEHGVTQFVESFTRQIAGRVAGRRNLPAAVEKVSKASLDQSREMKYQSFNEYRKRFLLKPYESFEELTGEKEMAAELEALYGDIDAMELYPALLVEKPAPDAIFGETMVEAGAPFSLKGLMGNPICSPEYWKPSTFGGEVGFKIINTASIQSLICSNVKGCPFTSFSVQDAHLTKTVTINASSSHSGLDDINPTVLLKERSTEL
Put plainly: Cyclooxygenase-2 activity assay (chemiluminescent COX inhibitor screening kit). It is filed as biochemical. The following applies: COX-2 enzyme and substrates. As for the experimental part: COX-2 inhibition was measured with the chemiluminescent COX inhibitor screening assay kit (Cayman Chemical, Ann Arbor, Mich.).
The above-mentioned test compounds were incubated with COX-2 enzyme and substrates before measuring the COX-2 activity.

Another data set has as its system iNOS mRNA. Put plainly: iNOS mRNA expression (RT-PCR) in LPS-stimulated RAW264.7 cells. The following applies: LPS 1 μg/mL 6 h. It is filed as cell-based, murine. As for the experimental part:
(§2) For each RT-PCR analysis, 2 μg of total RNA isolated with TRIZOL® Reagent was used to synthesize 1st-strand cDNA using […]™ II Reverse Transcriptase (Invitrogen). The iNOS and COX-2 genes were amplified and analyzed using specific oligonucleotide primers and PCR reactions by method described in Chiang et al. Br J Pharmacol 2005; 146:352-63).
RAW264.7 cells were treated with various concentrations of dLGG for 1 hour, then incubated with LPS (1 μg/mL) for 6 hours. Total cellular RNA was subjected to RT-PCR, and final PCR product resolved by 1% agarose gel electrophoresis.

Another data set deals with COX-2 mRNA. Put plainly: COX-2 mRNA expression (RT-PCR) in LPS-stimulated macrophages. It is filed as cell-based, murine. To be noted: 75 μg/mL. The protocol: as §2, §1

Regarding `CC/C=C\C/C=C\C/C=C\CCCCCCCC(=O)OC[C@H](CO[C@@H]1O[C@H](CO)[C@H](O)[C@H](O)[C@H]1O)OC(=O)CCCCCCC/C=C\C/C=C\C/C=C\CC` [dLGG, 1,2-di-O-α-linolenoyl-3-O-β-galactopyranosyl-sn-glycerol], in the data set with B16 melanoma, the “Mortality or body weight loss on i.p. administration” value is on record as “without mortality or body weight loss”. Also, in the data set on COX-2 protein (50 μg/mL), the “Suppression of LPS-induced COX-2 protein synthesis” value is listed as “approximately 60%”. Also, the COX-2 protein level result in the data set on COX-2 protein (75 μg/mL) is “barely detectable”. Besides, on COX-2 enzyme, the IC50 was 5.35 µM. For the same compound, the “Reduction of iNOS mRNA expression” value in the data set on iNOS mRNA was “approximately 56%”. Also, the “Inhibition of COX-2 mRNA expression” value in the data set on COX-2 mRNA is approximately 29%.
